Two compounds from PMC8659057, “Chemical Constituents from the Wild Atractylodes macrocephala Koidz and Acetylcholinesterase Inhibitory Activity Evaluation as Well as Molecular Docking Study” (Molecules, 2021) can be followed below.

For the experiment, the target named is acetylcholinesterase (AChE, Type VI-S, from electric eel) (Electrophorus electricus, UniProt O42275). Kind of experiment: modified Ellman colorimetric AChE inhibition assay. The experiment is classed as biochemical. In general terms: Ellman's reagent forms a yellow product with free thiols.
Sequence of acetylcholinesterase (AChE, Type VI-S, from electric eel) (O42275 24-633): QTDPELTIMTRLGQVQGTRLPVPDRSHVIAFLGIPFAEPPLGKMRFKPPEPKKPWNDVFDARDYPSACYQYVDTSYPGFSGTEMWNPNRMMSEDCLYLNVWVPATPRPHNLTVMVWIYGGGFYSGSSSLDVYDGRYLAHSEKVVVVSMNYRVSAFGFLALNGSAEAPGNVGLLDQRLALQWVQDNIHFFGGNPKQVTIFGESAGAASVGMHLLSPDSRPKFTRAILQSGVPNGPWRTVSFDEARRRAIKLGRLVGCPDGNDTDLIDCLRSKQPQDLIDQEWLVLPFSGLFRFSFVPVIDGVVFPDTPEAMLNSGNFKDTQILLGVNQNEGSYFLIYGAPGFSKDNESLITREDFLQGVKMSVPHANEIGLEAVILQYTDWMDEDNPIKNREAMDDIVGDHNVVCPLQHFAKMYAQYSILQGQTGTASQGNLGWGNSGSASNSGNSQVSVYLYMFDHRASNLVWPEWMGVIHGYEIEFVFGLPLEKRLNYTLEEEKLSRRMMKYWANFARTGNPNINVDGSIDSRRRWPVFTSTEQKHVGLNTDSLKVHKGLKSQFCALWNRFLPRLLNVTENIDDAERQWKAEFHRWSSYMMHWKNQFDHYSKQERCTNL

The structures appear in SMILES notation. Where two headings read alike, the source gives them in different places.

As for `C=C1CCC[C@]2(C)C[C@]3(O)OC(=O)C(C)=C3C[C@@H]12` [compound 1, atractylenolide III], the IC50 (in general, the point on the concentration scale where inhibition reaches its midpoint) (read-out: IC50 (converted)) is 247 µM.
On to `C=C1C(OC(C)=O)CCC2(C)CC3(C45CC6(C)CCC(OC(C)=O)C(=C)C6CC4=C(C)C(=O)O5)OC(=O)C(C)=C3CC12` (centres unmarked) [compound 5, biatractylenolide II], for which it took 33.9 µM to reach half-maximal inhibition (IC50).
